US8530172B2, “Methods and materials for assessing enzyme-nucleic acid complexes” (Mayo Foundation for Medical Education and Research, priority 2010, dated 2013)

How the values were obtained:
[1] = biological target: T1, topo I-DNA covalent complexes (Homo sapiens, UniProt P11387); experiment: In vivo complexing of enzyme (ICE) assay with immunoblotting, A549 cells; type: cell-based; conditions: 10 μM drug, 60 minutes
T1 construct: separate topo I-DNA covalent complexes from free topo I in A549 cell lysates; endogenous in cells; host or cells: A549
T1 sequence (P11387 1-765): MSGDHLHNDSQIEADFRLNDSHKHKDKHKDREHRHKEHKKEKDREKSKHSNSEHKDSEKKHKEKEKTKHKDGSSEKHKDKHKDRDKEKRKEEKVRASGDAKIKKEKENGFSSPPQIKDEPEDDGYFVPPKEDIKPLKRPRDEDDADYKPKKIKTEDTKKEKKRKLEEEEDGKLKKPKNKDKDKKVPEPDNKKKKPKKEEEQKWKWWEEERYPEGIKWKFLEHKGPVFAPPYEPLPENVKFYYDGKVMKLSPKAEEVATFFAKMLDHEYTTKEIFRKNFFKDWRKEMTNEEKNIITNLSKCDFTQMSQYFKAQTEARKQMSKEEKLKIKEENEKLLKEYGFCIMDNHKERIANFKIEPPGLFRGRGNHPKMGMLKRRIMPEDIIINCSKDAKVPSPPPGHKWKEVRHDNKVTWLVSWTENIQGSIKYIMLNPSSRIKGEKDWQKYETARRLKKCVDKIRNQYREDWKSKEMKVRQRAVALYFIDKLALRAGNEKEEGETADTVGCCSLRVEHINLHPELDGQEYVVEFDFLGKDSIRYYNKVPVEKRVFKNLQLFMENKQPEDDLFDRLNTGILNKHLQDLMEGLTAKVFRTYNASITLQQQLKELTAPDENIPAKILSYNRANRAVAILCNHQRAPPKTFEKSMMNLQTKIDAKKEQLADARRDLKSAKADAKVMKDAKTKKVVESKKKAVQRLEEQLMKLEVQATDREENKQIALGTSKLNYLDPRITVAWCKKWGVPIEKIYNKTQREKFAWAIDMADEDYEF
Protocol: ICE assays were performed as described elsewhere (Subramanian et al., ICE Bioassay; DNA Topoisomerase Protocols: Volume II: Enzymology and Drugs, 2001, pp 137-147; and Gálvez-Peralta et al., Bioorganic & Medicinal Chemistry Letters, 19:4459-4462 (2009)). Briefly, A549 cells grown to 40-60% confluence in 100 mm tissue culture dishes were treated for 60 minutes with 0.1% (v/v) DMSO, 10 μM TPT, or 10 μM etoposide in serum-free RPMI containing 10 mM HEPES, pH 7.4 (medium B). At the end of the incubation, the medium was aspirated, and the cells were rapidly lysed in 1 mL lysis buffer consisting of 1% (w/v) sarkosyl, 10 mM Tris-HCl (pH 8.0 at 20-22° C.) and 1 mM EDTA. Lysate was layered on a cesium chloride gradient and ultracentrifuged at 125,000 g for 21 hours at 20° C. After centrifuge tubes were perforated at the bottom with a 23-gauge needle, 0.5 mL fractions were collected, assayed for the presence of DNA (detectable in fractions 1-4), and slot-blotted onto nitrocellulose membranes. Membranes were then blocked in 5% (w/v) milk in […] NaCl containing 10 mM Tris-HCl (pH 7.4 at 20-22° C.) for 2 hours and incubated in either C-21 anti-topo I IgM antibody (obtained from Y.-C. Cheng; Yale University; New Haven, Conn.) or the α-TopoI cc antibody (diluted to 1 μg/mL in blocking buffer). Western blotting was performed as described elsewhere (Kaufmann, Anal. Biochem., 296:283-286 (2001)).

[2] = biological target: T1, topo I-DNA covalent complexes; experiment: Band depletion assay, A549 cells (SDS-PAGE immunoblot and slot blot); type: cell-based; conditions: increasing TPT concentrations up to 100 μM, 60 minutes
Protocol: Band depletion assays were performed as described elsewhere (Kaufmann and […], Methods Mol. Biol., 94:253-268 (1999)). A549 cells grown in 100 mm culture dishes to 40-60% confluence were treated with increasing concentrations of TPT in medium B for 60 minutes. After treatment, cells were immediately solubilized in 6 M guanidine hydrochloride containing 250 mM Tris-HCl (pH 8.5 at 20° C.), 10 mM EDTA, 1% (v/v) 2-mercaptoethanol, and 1 mM freshly added phenylmethylsulfonyl fluoride. After preparation, for electrophoresis as described elsewhere (Kaufmann et al., Blood, 89:2098-2104 (1997), aliquots containing […] of protein (determined by the bicinchoninic acid method (Smith et al., Anal. Biochem., 150:76-85 (1985)) were either slot blotted for immunoblotting with α-TopoI cc antibody or separated on SDS-polyacrylamide gels, eletrophoretically transferred to nitrocellulose, and probed with C-21 anti-Topo I or, as a loading control anti-Hsp90 mouse (obtained from D. O. Toft; Mayo Clinic; Rochester, Minn.).

[3] = tested on: topo I-DNA covalent complexes; experiment: Flow cytometry, P388/CPT cells (lack detectable topo I); type: cell-based, mouse; conditions: 2 μM TPT
Protocol: (§1) A549 and K562 cells were stained using a modified protocol of a protocol described elsewhere (Muslimovic et al., Nat. Protoc., 3:1187-1193 (2008)). After 10^6 cells were treated for 1 hour with TPT in medium B, samples were centrifuged at 300 g for 5 minutes. Cells were then partially lysed for 1 minute in 100 μL extraction buffer, which consisted of 25 mM Tris-HCl (pH 7.5 at 20-22° C.), 1% (w/v) Triton X-100, 1 mM EDTA, 0.01% (w/v) BSA, and 0.2% (w/v) paraformaldehyde then fixed for 10 minutes at 20-22° C. by addition of 1 mL 2% (w/v) paraformaldehyde in PBS. Nuclei were pelleted and incubated for 60 minutes in 100 μL blocking buffer with primary antibody (1 μg/mL for A549 and P388 cells; and 5 μg/mL for K562 cells). Nuclei were washed by addition of 2 mL PBS, pelleted, and incubated for 30 minutes in 100 μL blocking buffer with 1 μg/mL Alexa Fluor 647-conjugated goat anti-mouse IgG (Invitrogen). Nuclei were washed by addition of 2 mL PBS, pelleted, and immediately analyzed on a FACSCanto II flow cytometer (BD Biosciences; San Jose, Calif.) on the APC channel (excitation: 633 nm; emission: 660/20 nm).

[4] = biological target: T2, topo I-DNA covalent complexes (Mus musculus, UniProt Q04750); experiment: Flow cytometry, wild-type P388 cells; type: cell-based; conditions: 2 μM TPT
T2 construct: endogenous in cells; host or cells: P388 (wild type)
T2 sequence (Q04750 1-767): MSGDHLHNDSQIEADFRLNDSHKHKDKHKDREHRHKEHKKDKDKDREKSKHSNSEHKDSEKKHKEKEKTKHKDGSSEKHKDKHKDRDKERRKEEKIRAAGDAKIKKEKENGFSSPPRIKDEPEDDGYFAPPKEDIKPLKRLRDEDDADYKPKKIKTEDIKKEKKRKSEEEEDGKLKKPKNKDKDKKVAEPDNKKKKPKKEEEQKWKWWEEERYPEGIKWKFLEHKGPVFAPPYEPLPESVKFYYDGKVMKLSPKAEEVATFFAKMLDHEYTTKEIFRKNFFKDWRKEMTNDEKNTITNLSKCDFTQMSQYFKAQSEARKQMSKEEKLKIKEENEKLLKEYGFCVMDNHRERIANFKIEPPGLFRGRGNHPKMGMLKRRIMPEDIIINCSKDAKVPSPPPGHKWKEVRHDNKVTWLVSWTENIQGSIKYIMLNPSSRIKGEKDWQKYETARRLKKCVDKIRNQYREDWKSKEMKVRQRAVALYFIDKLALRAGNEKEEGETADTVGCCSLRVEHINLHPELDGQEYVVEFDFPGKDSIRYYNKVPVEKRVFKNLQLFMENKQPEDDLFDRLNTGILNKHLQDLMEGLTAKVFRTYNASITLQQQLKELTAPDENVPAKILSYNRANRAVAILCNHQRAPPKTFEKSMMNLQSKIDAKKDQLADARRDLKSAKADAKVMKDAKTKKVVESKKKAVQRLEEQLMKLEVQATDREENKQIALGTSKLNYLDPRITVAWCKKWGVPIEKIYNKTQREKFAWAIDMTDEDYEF
Protocol: as §1

[5] = biological target: T1, topo I-DNA covalent complexes; experiment: Immunofluorescence (confocal microscopy) in A549 cells; type: cell-based
Protocol: Immunofluorescence studies in A549 cells were performed as described elsewhere (Segovis et al., J. Immunol., 182:6933-6942 (2009)) with several modifications. After cells grown on nitric acid-etched coverslips were treated for 1 hour with TPT in medium B, coverslips were fixed in 2% (w/v) paraformaldehyde in calcium- and magnesium-free Dulbecco's phosphate buffered saline (PBS) for 10 minutes at room temperature, washed with PBS, and permeabilized with 0.25% (v/v) Triton X-100 in PBS for 5 minutes. To denature DNA-protein crosslinks, the coverslips were incubated in 1% SDS for 5 minutes (Brown et al., Histochem. Cell Biol., 105:261-267 (1996)), washed three times with PBS, and incubated in a blocking buffer consisting of PBS, 1% (v/v) glycerol, 0.1% glycerol from cold water fish, 5% (v/v) normal goat serum, 0.1% (w/v) BSA, and 0.4% (w/v) sodium azide. Coverslips were incubated overnight in primary antibody, followed by staining with Alexa Fluor 488-, 568-, or 647-conjugated secondary antibody (Invitrogen) diluted at a ratio of 1:1000. α-TopoI cc antibody was used at 1.2 μg/mL, and α-Topo I human IgG (Topogen; Port Orange, Fla.) was used at 1:1000. […] Quantitation and image processing were performed using the Zeiss Zen software package and Adobe Photoshop CS3.

Row | SMILES | topo I-DNA covalent complexes in DNA fractions after drug exposure (α-TopoI cc blot) [1] | topo I-DNA covalent complex signal (slot blot probed with α-TopoI cc) [2] | total topo I signal at 100 kDa (SDS-PAGE, immunoblot) [2] | shift in α-TopoI cc staining intensity [3] | shift in α-TopoI cc staining intensity [4] | α-TopoI cc staining intensity (average number of foci per cell or maximal mean fluorescence) ([5]; TPT 1 hour) | non-nucleolar staining of topo I-DNA complexes (double staining) ([5]; TPT versus untreated)
1 | CC[C@@]1(O)C(=O)OCc2c1cc1n(c2=O)Cc2cc3c(CN(C)C)c(O)ccc3nc2-1 [TPT, Topotecan] | detected topo I that co-migrates with DNA | corresponding increase in signal for topo I-DNA covalent complexes | graduated decrease in the topo I signal at 100 kDa | this shift was not observed | rightward shift was detectable | dose-dependent increase | dramatic increase in non-nucleolar staining of topo I-DNA complexes
2 | COc1cc([C@@H]2c3cc4c(cc3[C@@H](O[C@@H]3O[C@@H]5CO[C@@H](C)O[C@H]5[C@H](O)[C@H]3O)[C@H]3COC(=O)[C@H]23)OCO4)cc(OC)c1O [etoposide] | failed to detect |  |  |  |  |  | 
